Reference: publication PMC6539868, “Syntheses and Biological Studies of Cu(II) Complexes Bearing Bis(pyrazol-1-yl)- and Bis(triazol-1-yl)-acetato Heteroscorpionate Ligands” (Molecules, 2019)

Legend:
LoVo cells [1] = assay: Cellular uptake (intracellular copper by GF-AAS); type: cell-based, human; settings: 24 h, 2 μM
Procedure: LoVo cells (2.5 × 10^6) were seeded in 75 cm^2 flasks in growth medium (20 mL). After overnight incubation, the medium was replaced, and the cells were treated with tested compounds for 24 h. Cell monolayers were then processed and mineralized as previously described. The sample was analyzed for copper by using a Varian AA Duo graphite furnace atomic absorption spectrometer (Varian, Palo Alto, CA, USA) at the wavelength of 324 nm. The calibration curve was obtained using known concentrations of standard solutions purchased from Sigma Chemical Co.
With the purpose of underling a possible correlation between cellular uptake efficiency and cytotoxicity, LoVo cells were treated for 24 h with equimolar concentrations (2 μM) of copper(II) complexes and the intracellular copper amount was quantified by means of Graphite Furnace Atomic Absorption Spectrometry (GF-AAS) analysis. […] In fact, the intracellular copper content detected in LoVo cells follows the same cytotoxicity trend 1 > 2 > 3.

Stability to air = type: physicochemical; settings: also as solutions
Solubility = type: physicochemical
LoVo-OXP = assay: MTT cytotoxicity assay, cross-resistance profile; type: cell-based, human
From the text: (§1) Human lung (A549), colon (HCT-15 and LoVo) and breast (MCF-7) carcinoma cell lines were obtained from American Type Culture Collection (ATCC, Rockville, MD, USA). Human pancreatic BxPC3 carcinoma cells were obtained from European Collection of Cell Culture (ECACC, Salisbury, UK). Human ovarian 2008 cancer cells were kindly provided by Prof. G. Marverti (Dept. of Biomedical Science of Modena University, Modena, Italy). Human squamous cervical A431 carcinoma cells were kindly provided by Prof. F. Zunino (Division of Experimental Oncology B, Istituto Nazionale dei Tumori, Milan, Italy). The LoVo-OXP cells were obtained as previously described. Cell lines were maintained in culture in the logarithmic phase at 37 °C in a 5% carbon dioxide atmosphere using the following media added of 10% fetal calf serum (Euroclone, Milan, Italy), antibiotics (50 units/mL penicillin and 50 μg/mL streptomycin), and 2 mM L-glutamine: (i) RPMI-1640 medium (Euroclone) for HCT-15, A431, MCF-7, BxPC3 and 2008 cells; (ii) F-12 HAM’S (Sigma Chemical Co.) for A549, LoVo and LoVo-OXP cells.
(§2) The growth inhibitory effect towards 2D tumor cell lines was evaluated by means of MTT assay as previously described. IC50 values were calculated by four parameters logistic (4-PL) model. All the values are the means ± SD of not less than five measurements starting from three different cell cultures.
(§3) HCT-15 colon cancer cells are notoriously poorly chemosensitive to cisplatin. […] As for cisplatin, the clinical effectiveness of OXP is seriously hampered by the cancer cell resistance and, at present, few other drug regimens are available for patients with OXP-refractory colorectal cancers. […] The RF values (calculated by dividing IC50 for resistant cells by those for sensitive ones) were about 10 times lower than that of OXP, excluding the occurrence of cross-resistance phenomena.

LoVo = assay: MTT cytotoxicity assay, cross-resistance profile; type: cell-based, human; settings: 72 h, MTT test, oxaliplatin-sensitive colon cancer cells; read-out: IC50 (µM) ± S.D. LoVo
From the text: as §1, §2, §3

LoVo cells [2] = assay: Transmission electron microscopy (TEM) analysis; type: cell-based, human; settings: IC50 of compound, 24 h
Procedure: Approximately 10^6 LoVo cells were seeded in 24-well plates and, after 24 h incubation, treated with 1 and incubated further 24 h. Samples were then washed with cold PBS, harvested and fixed with 1.5% glutaraldehyde buffer with 0.2 M sodium cacodylate, pH 7.4. After washing with buffer and post-fixation with 1% OsO4 in 0.2 M cacodylate buffer, samples were desiccated and embedded in epoxy resin (Epon Araldite). Sagittal serial sections of about 1 μm were counterstained with toluidine blue; subsequently, sections of 90 nm were stained with uranyl acetate and lead citrate.
Micrographs were taken with a Hitachi H-600 electron microscope (Hitachi, Tokyo, Japan) at 75 kV. All photos were elaborated in Corel Draw 11 (Corel Corporation, Ottawa, ON, Canada).
Transmission electron microscopy (TEM) analysis has been performed in order to investigate the influence of copper compounds on LoVo cells morphology and their organelles.

[3] = test system: HCT-15 colon cancer cell spheroids; assay: Acid phosphatase (APH) assay in 3D spheroids; type: cell-based, human; settings: 72 h, APH test, read-out: IC50 (µM) ± S.D. HCT-15 spheroids
Procedure: Spheroid cultures were obtained by seeding 2.5 × 10^3 HCT-15 cells/well in round bottom non-tissue culture treated 96 well-plate (Greiner Bio-one, Kremsmünster, Austria) in phenol red free RPMI-1640 medium (Sigma Chemical Co.), containing 10% FCS and supplemented with 20% methyl cellulose stock solution.
An APH modified assay was used for determining cell viability in 3D spheroids, as previously described. IC50 values were calculated with a four parameter logistic (4-PL) model. All the values are the means ± SD of not less than four independent experiments.
The in vitro antitumor efficacy of the newly developed compounds was also tested on 3D colon cancer cell culture models. Differently from 2D monolayer culture, 3D spheroid cell culture systems comprise cancer cells in various cell growth stages. Consequently, the multicellular cancer spheroid model is recognized to better reflect the tumor mass in vivo regarding drug permeation, cell interactions, gene expression, hypoxia and nutrient gradients with respect to monolayer cell cultures. Table 4 summarizes the IC50 values obtained after treatment of 3D cell spheroids of human HCT-15 colon cancer cells with copper(II) compounds as well as with cisplatin, as reference drug. In accordance with 2D chemosensitivity assays, complex 3 was scarcely effective, whereas complex 1 was as effective as cisplatin. […] We hypothesize that in this non-proliferative and very resistant tumor model the higher lipophilicity of 1, due to the presence of methyl substituents on the pyrazolyl rings, might be responsible for the enhanced compound penetration in the core area of spheroids.

[4] = test system: panel of human cancer cell lines derived from solid tumors; assay: MTT cytotoxicity, whole panel of human cancer cell lines; type: cell-based; settings: mean over the cell lines of Table 2, 72 h
Procedure: as §2
(§4) The in vitro antitumor activity of copper(II) complexes 1–3 and the uncoordinated ligands [HC(COOH)(pz^Me2)2], [HC(COOH)(pz)2] and [HC(COOH)(tz)2] was evaluated against a panel of human cancer cell lines derived from solid tumors. Adherent cell lines representative of cervical (A431), pancreatic (BxPC3) colon (HCT-15), breast (MCF-7), lung (A549), and ovarian (2008) cancers, differently sensitive to cisplatin, were exposed to the indicated compounds for 72 h.
as §3

HCT-15 = assay: MTT cytotoxicity assay, 2D monolayer; type: cell-based, human; settings: 72 h
From the text: as §1, §2, §4

BxPC3 = assay: MTT cytotoxicity assay, 2D monolayer; type: cell-based, human; settings: 72 h, MTT test, pancreatic carcinoma; read-out: IC50 (µM) ± S.D. BxPC3
From the text: as §1, §2, §4

A431 = assay: MTT cytotoxicity assay, 2D monolayer; type: cell-based, human; settings: 72 h, MTT test, cervical carcinoma; read-out: IC50 (µM) ± S.D. A431
From the text: as §1, §2, §4

2008 = assay: MTT cytotoxicity assay, 2D monolayer; type: cell-based, human; settings: 72 h, MTT test, ovarian cancer; read-out: IC50 (µM) ± S.D. 2008
From the text: as §1, §2, §4

MCF-7 = assay: MTT cytotoxicity assay, 2D monolayer; type: cell-based, human; settings: 72 h, MTT test, breast carcinoma; read-out: IC50 (µM) ± S.D. MCF-7
From the text: as §1, §2, §4

A549 = assay: MTT cytotoxicity assay, 2D monolayer; type: cell-based, human; settings: 72 h
From the text: as §1, §2, §4

LoVo cells [5] = assay: ROS production (CM-H2DCFDA); type: cell-based, human; settings: 15 μM complexes, antimycin 3 μM
Procedure: The production of ROS was measured in LoVo cells (10^4 per well) grown for 24 h in a 96-well plate in RPMI medium without phenol red. Samples were loaded with 10 μM 5-(and-6)-chloromethyl-2′,7′-dichlorodihydrofluorescein diacetate acetyl ester (CM-H2DCFDA) (Molecular Probes-Invitrogen, Eugene, OR, USA) for 25 min, in the dark. Afterward, each well was washed with PBS and incubated with tested complexes. The fluorescence intensity in each well was assessed by means of a Fluoroskan Ascent FL (Labsystem, Vantaa, Finland) plate reader (ex: 485 nm; em: 527 nm). Antimycin (3 μM, Sigma), a well-known inhibitor of the electron transport chain at Complex III level, was used as reference compound.
It has been documented that oxidative stress and generation of ROS play a significant role in anticancer activity of copper(II) compounds [22, 81]. To explore the molecular mechanisms underlying the cytotoxicity of newly synthetized copper(II) complexes, cellular production of ROS upon treatment with 15 μM of complex 1, 2 or 3 was monitored in LoVo cells by using the peroxide-sensitive fluorescent probe CM-H2DCFDA (Figure 5). […] Conversely, for all copper complexes there was no ROS induction.

In the case of `Cc1cc(C)n(C(C(=O)O)n2nc(C)cc2C)n1.Cc1cc(C)n(C(C(=O)[O-])n2nc(C)cc2C)n1.[Cu+2].[O-][Cl+3]([O-])([O-])[O-]` [compound 1, [HC(COOH)(pz^Me2)2]Cu[HC(COO)(pz^Me2)2]·ClO4], the “cellular uptake efficiency (intracellular copper amount)” value (LoVo cells [1]) is reported as “taken up slightly more efficiently than complex 2”, the air stability (Stability to air) is reported as “air stable even as solutions” and the “solubility in methanol, DMSO and acetonitrile” value (Solubility; methanol, DMSO, acetonitrile) is reported as “soluble”. The solubility in water (Solubility; water) was “slightly soluble”, the IC50 (LoVo-OXP; 72 h, MTT test, oxaliplatin-resistant colon cancer cells, read-out: IC50 (µM) ± S.D. LoVo-OXP) was 5.2 ± 0.6 µM and the “RF times lower than that of OXP” value (LoVo-OXP; LoVo-OXP/LoVo) was “about 10 times”. The “RF (resistance factor)” value (LoVo-OXP; RF = IC50 (resistant cells)/IC50 (wild-type cells), LoVo-OXP/LoVo) was 1.2, the IC50 (LoVo) was 4.2 ± 0.9 µM and the “cytoplasmic vacuolization (TEM morphology)” value (LoVo cells [2]) was “massive cytoplasmic vacuolization”. The “hallmarks of apoptosis (TEM morphology)” value (LoVo cells [2]) was “no classical hallmarks of apoptosis”, the IC50 [3] was 67.8 ± 14.9 µM and the IC50 [4] was 6.5 µM. The IC50 (HCT-15; MTT test, colon carcinoma, read-out: IC50 (µM) ± S.D. HCT-15) was 8.5 ± 0.6 µM, the “fold more effective than cisplatin” value (HCT-15; HCT-15 cells, MTT) was “roughly 2 fold” and the IC50 (BxPC3) was 2.5 ± 0.4 µM. The IC50 (A431) was 3.8 ± 1.1 µM, the IC50 2008 was 10.8 ± 1.3 µM and the IC50 (MCF-7) was 10.5 ± 2.1 µM. The IC50 (A549; MTT test, lung carcinoma, read-out: IC50 (µM) ± S.D. A549) was 3.6 ± 0.5 µM and the “fold more effective than cisplatin” value (A549; A549 cells, MTT) was “roughly 2 fold”.

With Antimycin the ROS production (LoVo cells [5]) was “markedly stimulated ROS formation”.
